Measurements: PubChem BioAssay AID1963986 (Molecular Pharmacology Branch, DTP, NCI, 2024)
pIC50: −log10 of the molar value. Each block holds one compound with its values, some of them ahead of it.

Test system: 171881-019-R-J1-PDC tumor spheroid viability
Experiment: Anticancer human tumor 171881-019-R-J1-PDC patient-derived invasive breast carcinoma cell line growth inhibition [PI3K]
Settings: spheroids with HUVEC and MSC; for pIC50: curve of first compound; for viability, T/C: stronger effect = lower value
Source text: Combinatorial screen of targeted agents with the PI3K inhibitors inavolisib, alpelisib, duvelisib, and copanlisib in multi-cell type tumor spheroids
A high-throughput screen of multi-cell type tumor spheroids was designed to identify active combinations of targeted small molecules and PI3K pathway inhibitors. Complex spheroids include a stromal component modeled by human endothelial cells (HUVEC) and fibroblasts modeled by human mesenchymal stem cells (MSCs). The concentration ranges selected for each drug and investigational agent were based upon clinically achievable concentrations if the clinical Cmax of the agent was known.
Compounds. The drugs and investigational agents: inavolisib (NSC800729), alpelisib (NSC765974), duvelisib (NSC772469), copanlisib (NSC816437), ipatasertib (NSC767898), afuresertib (NSC778305), talazoparib (NSC767125), sapanisertib (NSC764658), selumetinib (NSC741078), tovorafenib (DAY101, NSC766906), vemurafenib (NSC761431), ravoxertinib (NSC781343), sotorasib (NSC818433), MRTX1133 (NSC 836407), abemaciclib (NSC 768073), palbociclib (NSC758247), venetoclax (NSC 766270), SY5609 (NSC837396), enzalutamide (NSC755605), and darolutamide (NSC825331), were obtained from the National Cancer Institute (NCI) Developmental Therapeutics Program Chemical Repository. The FDA-approved anticancer drug set is available from the NCI Developmental Therapeutics Program. […] The stock solutions were prepared in dimethyl sulfoxide (DMSO, Sigma-Aldrich, St. Louis, MO, cat. D2650) at 800-fold the tested concentration and stored at -70 degrees C prior to their use. All drugs and investigational agents were tested over a range starting from a high concentration at or near the clinical Cmax and decreasing in half-log increments. If the clinical Cmax for an agent had not been determined, the highest concentration tested was 10 microM.
Cell Culture. All cells were maintained in an incubator at 37 degrees C and 5% CO2 with 95% humidity. The PDC lines were cultured according to standard operating procedures established by the NCI PDMR (https://pdmr.cancer.gov/sops/default.htm). All PDCs were thawed and cultured in Matrigel-coated flasks prepared with a working solution of 1X Ham's F-12 nutrient mix, without supplementation (Invitrogen, Waltham, MA, cat. 11765054), 100 U/mL penicillin-streptomycin (Invitrogen, cat. 15140122), and 2.5% Matrigel (Corning Inc., Corning, NY, cat. 354248) for the first three passages. The 354836-022-R-J1-PDC, 475296-252-R-J1-PDC, and 997726-040-R-J2-PDC lines were cultured in 6A media, which includes advanced DMEM/F-12 (Thermo Fisher Scientific, cat. 12634028), 10 mM HEPES (Thermo Fisher Scientific, cat. 15630080), 1X GlutaMAX supplement (Thermo Fisher Scientific, cat. 35050061), 0.1 mg/mL primocin (InvivoGen, San Diego, CA, cat. ant-pm-2), 10% defined fetal bovine serum, heat inactivated (HyClone Laboratories Inc., Logan, UT, cat. SH30070.03HI), 50% L-WRN conditioned media (ATCC, cat. CRL-3276), 1.25 mM N-Acetyl-L-cysteine (Sigma-Aldrich, cat. A9165), 10 mM nicotinamide (Sigma-Aldrich, cat. N0636), 1X B-27 supplement (Thermo Fisher Scientific, cat. 17504044), 1X N-2 supplement (Thermo Fisher Scientific, cat. 17502048), and 10 microM Y-27632 dihydrochloride (Tocris Bioscience, Bristol, United Kingdom, cat. 1254). The 624824-186-R-J2-PDC line was cultured in 6C/Colon 1B media, which includes all 6A media components plus 50 ng/mL human EGF recombinant protein (Thermo Fisher Scientific, cat. PHG0311). […]

[1] = second compound 0.00316 µM, first compound 0.0316 µM
[2] = second compound 0.00316 µM, first compound 0.1 µM
[3] = second compound 0.00316 µM, first compound 0.316 µM
[4] = second compound 0.00316 µM, first compound 1 µM
[5] = second compound 0.00316 µM, first compound 3.16 µM
[6] = second compound 0.00316 µM, first compound 10 µM
[7] = second compound 0.01 µM, first compound 0.0316 µM
[8] = second compound 0.01 µM, first compound 0.1 µM
[9] = second compound 0.01 µM, first compound 0.316 µM
[10] = second compound 0.01 µM, first compound 1 µM
[11] = second compound 0.01 µM, first compound 3.16 µM
[12] = second compound 0.01 µM, first compound 10 µM
[13] = second compound 0.0316 µM, first compound 0.0316 µM
[14] = second compound 0.0316 µM, first compound 0.1 µM
[15] = second compound 0.0316 µM, first compound 0.316 µM
[16] = second compound 0.0316 µM, first compound 1 µM
[17] = second compound 0.0316 µM, first compound 3.16 µM
[18] = second compound 0.0316 µM, first compound 10 µM
[19] = second compound 0.1 µM, first compound 0.0316 µM
[20] = second compound 0.1 µM, first compound 0.1 µM
[21] = second compound 0.1 µM, first compound 0.316 µM
[22] = second compound 0.1 µM, first compound 1 µM
[23] = second compound 0.1 µM, first compound 3.16 µM
[24] = second compound 0.1 µM, first compound 10 µM
[25] = second compound 0.316 µM, first compound 0.0316 µM
[26] = second compound 0.316 µM, first compound 0.1 µM
[27] = second compound 0.316 µM, first compound 0.316 µM
[28] = second compound 0.316 µM, first compound 1 µM
[29] = second compound 0.316 µM, first compound 3.16 µM
[30] = second compound 0.316 µM, first compound 10 µM
[31] = second compound 1 µM, first compound 0.0316 µM
[32] = second compound 1 µM, first compound 0.1 µM
[33] = second compound 1 µM, first compound 0.316 µM
[34] = second compound 1 µM, first compound 1 µM
[35] = second compound 1 µM, first compound 3.16 µM
[36] = second compound 1 µM, first compound 10 µM
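Note: spheroids exposed to compound for 7 days before viability read.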
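Throughout, for viability, T/C: 100% = DMSO vehicle-treated spheroids.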

- pIC50 (second compound 0.00316 µM): 6.52
- pIC50 (second compound 0.01 µM): 6.56
- pIC50 (second compound 0.0316 µM): 7.18
- pIC50 (second compound 0.1 µM): > 7.50
- pIC50 (second compound 0.316 µM): > 7.50
- pIC50 (second compound 1 µM): > 7.50
SMILES: CC(C)NCC(C(=O)N1CCN(c2ncnc3c2C(C)CC3O)CC1)c1ccc(Cl)cc1 (stereo unspecified) + CC(Nc1ccc2c(c1)OCCn1cc(N3C(=O)OCC3C(F)F)nc1-2)C(N)=O
- viability, T/C [1]: 84%
- viability, T/C [2]: 70%
- viability, T/C [3]: 50.4%
- viability, T/C [4]: 26.5%
- viability, T/C [5]: 13.8%
- viability, T/C [6]: 9.57%
- viability, T/C [7]: 64.8%
- viability, T/C [8]: 69%
- viability, T/C [9]: 45.6%
- viability, T/C [10]: 24.4%
- viability, T/C [11]: 13.4%
- viability, T/C [12]: 9.59%
- viability, T/C [13]: 52%
- viability, T/C [14]: 48.9%
- viability, T/C [15]: 38.6%
- viability, T/C [16]: 22.3%
- viability, T/C [17]: 12.2%
- viability, T/C [18]: 8.08%
- viability, T/C [19]: 35.4%
- viability, T/C [20]: 35.5%
- viability, T/C [21]: 31.3%
- viability, T/C [22]: 19.5%
- viability, T/C [23]: 11.7%
- viability, T/C [24]: 7.31%
- viability, T/C [25]: 27.1%
- viability, T/C [26]: 23.8%
- viability, T/C [27]: 23.5%
- viability, T/C [28]: 16.4%
- viability, T/C [29]: 10.8%
- viability, T/C [30]: 7.4%
- viability, T/C [31]: 20.5%
- viability, T/C [32]: 20%
- viability, T/C [33]: 19.1%
- viability, T/C [34]: 13.5%
- viability, T/C [35]: 9.24%
- viability, T/C [36]: 7.07%

- pIC50 (second compound 0.00316 µM): 5.23
- pIC50 (second compound 0.01 µM): 5.58
- pIC50 (second compound 0.0316 µM): 6.40
- pIC50 (second compound 0.1 µM): > 7.50
- pIC50 (second compound 0.316 µM): > 7.50
- pIC50 (second compound 1 µM): > 7.50
SMILES: C[C@@H](NC(=O)c1ncnc(N)c1Cl)c1ncc(C(=O)Nc2cc(C(F)(F)F)c(Cl)cn2)s1 + CC(Nc1ccc2c(c1)OCCn1cc(N3C(=O)OCC3C(F)F)nc1-2)C(N)=O
- viability, T/C [1]: 71.3%
- viability, T/C [2]: 88.5%
- viability, T/C [3]: 84.2%
- viability, T/C [4]: 80.4%
- viability, T/C [5]: 63.7%
- viability, T/C [6]: 38.8%
- viability, T/C [7]: 80.3%
- viability, T/C [8]: 78.5%
- viability, T/C [9]: 65.8%
- viability, T/C [10]: 70.3%
- viability, T/C [11]: 44.4%
- viability, T/C [12]: 27.4%
- viability, T/C [13]: 51.4%
- viability, T/C [14]: 53.9%
- viability, T/C [15]: 49.5%
- viability, T/C [16]: 46.5%
- viability, T/C [17]: 31.1%
- viability, T/C [18]: 17.1%
- viability, T/C [19]: 38.9%
- viability, T/C [20]: 35.7%
- viability, T/C [21]: 33.8%
- viability, T/C [22]: 31.6%
- viability, T/C [23]: 20.1%
- viability, T/C [24]: 10.7%
- viability, T/C [25]: 27%
- viability, T/C [26]: 24.5%
- viability, T/C [27]: 24.9%
- viability, T/C [28]: 23%
- viability, T/C [29]: 13.5%
- viability, T/C [30]: 6.3%
- viability, T/C [31]: 20.7%
- viability, T/C [32]: 20.9%
- viability, T/C [33]: 19.3%
- viability, T/C [34]: 16.4%
- viability, T/C [35]: 9.28%
- viability, T/C [36]: 3.79%

- pIC50 (second compound 0.00316 µM): 5.24
- pIC50 (second compound 0.01 µM): 5.24
- pIC50 (second compound 0.0316 µM): 5.31
- pIC50 (second compound 0.1 µM): 5.46
- pIC50 (second compound 0.316 µM): > 7.50
- pIC50 (second compound 1 µM): > 7.50
SMILES: CCCS(=O)(=O)Nc1ccc(F)c(C(=O)c2c[nH]c3ncc(-c4ccc(Cl)cc4)cc23)c1F + CC(Nc1ccc2c(c1)OCCn1cc(N3C(=O)OCC3C(F)F)nc1-2)C(N)=O
- viability, T/C [1]: 92.3%
- viability, T/C [2]: 109%
- viability, T/C [3]: 92.9%
- viability, T/C [4]: 109%
- viability, T/C [5]: 94.6%
- viability, T/C [6]: 10%
- viability, T/C [7]: 78.4%
- viability, T/C [8]: 87.2%
- viability, T/C [9]: 101%
- viability, T/C [10]: 102%
- viability, T/C [11]: 92.6%
- viability, T/C [12]: 11.1%
- viability, T/C [13]: 63.3%
- viability, T/C [14]: 64.9%
- viability, T/C [15]: 81.9%
- viability, T/C [16]: 83.3%
- viability, T/C [17]: 83%
- viability, T/C [18]: 7.38%
- viability, T/C [19]: 46.7%
- viability, T/C [20]: 51.4%
- viability, T/C [21]: 53.9%
- viability, T/C [22]: 57%
- viability, T/C [23]: 61.7%
- viability, T/C [24]: 5.11%
- viability, T/C [25]: 32.5%
- viability, T/C [26]: 32.4%
- viability, T/C [27]: 42%
- viability, T/C [28]: 44.7%
- viability, T/C [29]: 42.3%
- viability, T/C [30]: 5%
- viability, T/C [31]: 21%
- viability, T/C [32]: 28.4%
- viability, T/C [33]: 28.4%
- viability, T/C [34]: 33.5%
- viability, T/C [35]: 35.6%
- viability, T/C [36]: 3.55%
